In brackets after ≈: the same amount, converted by molar mass. Where two headings read alike, the source gives them in different places.
Key:
[1] = tested on: Ps. aeruginosa (6 strains); experiment: MIC, two-fold serial agar dilution, group (G-)-III; type: cell-based; settings: Pseudomonas aeruginosa, read-out: Geometric Mean of MIC
Method: (§1) In the primary evaluation of the compounds of this invention, the Minimum Inhibitory Concentrations (MIC's) of the compounds were determined by the two-fold serial agar dilution method in Mueller-Hinton agar against 32 strains of test organisms in six groups. The sample weights of the test compounds were adjusted according to the purity of each compound, so as to give a more accurate measure of the MIC's.
(G-)III: Ps. aeruginosa (6 strains)

[2] = tested on: Penicillinresistant S. aureus (5 strains); experiment: MIC, two-fold serial agar dilution, group (G+)-Ib; type: cell-based; settings: Staphylococcus aureus; (G+)-Ib, 5 strains, Mueller-Hinton agar; read-out: Geometric Mean of MIC
Method: as §1
(G+)Ib: Penicillinresistant S. aureus (5 strains)

[3] = tested on: S. aureus Smith; experiment: Median protective dose in infected mice; type: in vivo; settings: Staphylococcus aureus, im, immediately after intraperitoneal challenge, read-out: PD50
Method: (§2) The median protective dose (PD50) of some of the preferred compounds against various microorganisms was determined in mice by intramuscular administration of the test compound immediately after an intraperitoneal bacterial challenge.

[4] = tested on: P. aeruginosa A9843; experiment: Median protective dose in infected mice; type: in vivo; settings: Pseudomonas aeruginosa, im, immediately after intraperitoneal challenge, read-out: PD50
Method: as §2

[5] = tested on: E. coli Juhl; experiment: Median protective dose in infected mice; type: in vivo; settings: Escherichia coli, im, immediately after intraperitoneal challenge, read-out: PD50
Method: as §2

[6] = tested on: Penicillinsensitive S. aureus (5 strains); experiment: MIC, two-fold serial agar dilution, group (G+)-Ia; type: cell-based; settings: Staphylococcus aureus; (G+)-Ia, 5 strains, Mueller-Hinton agar; read-out: Geometric Mean of MIC
Method: as §1
(G+)Ia: Penicillinsensitive S. aureus (5 strains)

[7] = tested on: M. morganii (1 strain), Ent. cloacae (2 strains) and Ser. marcescens (2 strains); experiment: MIC, two-fold serial agar dilution, group (G-)-II; type: cell-based; settings: read-out: Geometric Mean of MIC
Method: as §1
(G-)II: M. morganii (1 strain), Ent. cloacae (2 strains) and Ser.

[8] = tested on: Cephalothinresistant E. coli (3 strains) and Kl. pneumoniae (3 strains); experiment: MIC, two-fold serial agar dilution, group (G-)-Ib; type: cell-based; settings: Escherichia coli, read-out: Geometric Mean of MIC
Method: as §1
(G-)Ib: Cephalothinresistant E. coli (3 strains) and Kl. pneumoniae (3

[9] = Mouse blood levels after single intramuscular injection; type: in vivo, mice; settings: in vivo, im, 20 mg/kg
Method: The absorption of some of the preferred compounds were determined in mice following a single intramuscular injection of the test compound (dissolved in 0.1M phosphate buffer; pH 7) at a dosage of 20 mg/kg. Blood samples were collected from the orbital sinuses into heparinized capillary tubes and assayed in Nutrient Agar (pH 6.6) using E. coli Ess-22-31 as the test organism. The blood levels at various time intervals, the half-life values (t1/2) and the areas under the curve (AUC) are shown in Table 2.

[10] = tested on: Cephalothinsensitive E. coli (2 strains), Kl. pneumoniae (1 strain) and Pr. mirabilis (2 strains); experiment: MIC, two-fold serial agar dilution, group (G-)-Ia; type: cell-based; settings: 5 strains, Mueller-Hinton agar, read-out: Geometric Mean of MIC
Method: as §1
(G-)Ia: Cephalothinsensitive E. coli (2 strains), Kl. pneumoniae (1
strain) and Pr. mirabilis (2 strains)

[11] = (G-)-II, 5 strains, Mueller-Hinton agar
[12] = (G-)-III, 6 strains, Mueller-Hinton agar

| Structure (SMILES) | MIC [2] [mg/L] | ED50 [3] [mg/kg] | ED50 [4] [mg/kg] | ED50 [5] [mg/kg] | MIC [6] [mg/L] | MIC [7, 11] [mg/L] | MIC [8] [mg/L] | AUC [9] [µg·h/mL] | concentration at 10 min [9] [µg/mL] | concentration at 20 min [9] [µg/mL] | concentration at 0.5 h [9] [µg/mL] | concentration at 40 min [9] [µg/mL] | concentration at 50 min [9] [µg/mL] | concentration at 1 h [9] [µg/mL] | concentration at 1.5 h [9] [µg/mL] | concentration at 2 h [9] [µg/mL] | half-life [9] [min] | MIC [10] [mg/L] | MIC [1, 12] [mg/L] | also measured |
| --- | --- | --- | --- | --- | --- | --- | --- | --- | --- | --- | --- | --- | --- | --- | --- | --- | --- | --- | --- | --- |
| Cc1nc2c[n+](CC3=C(C(=O)[O-])N4C(=O)C(NC(=O)/C(=N\OC5(C(=O)O)CCC5)c5csc(N)n5)[C@H]4SC3)ccc2s1 (stereo partly shown) [Im, 7-[(Z)-2-(2-Aminothiazol-4-yl)-2-(1-carboxycyclobut-1-oxyimino)-acetamido]-3-(2-methyl-5-thiazolo[4,5-c]pyridinio)methyl-3-cephem-4-carboxylate] | 8.8 (≈ 14 µM) | 9.4 | 9 | 0.1 | 3.4 (≈ 5.4 µM) | 0.25 (≈ 0.397 µM) | 0.56 (≈ 0.889 µM) | 7.1 | 13 | 10 | 6.9 | 4.8 | 2.7 | 2 | 0.48 | < 0.2 | 16 | 0.027 (≈ 0.0429 µM) | – | MIC [1]: 2.5 mg/L (≈ 3.97 µM) |
| CO/N=C(\C(=O)NC1C(=O)N2C(C(=O)[O-])=C(C[n+]3ccc4sc(N)nc4c3)CSC12)c1csc(N)n1 (stereo not shown) [In, 7-[(Z)-2-(2-Aminothiazol-4-yl)-2-methoxyiminoacetamido]-3-[{5-(2-aminothiazolo[4,5-c]pyridinio)}methyl]-3-cephem-4-carboxylate] | 0.72 (≈ 1.32 µM) | 0.9 | 2.8 | < 0.01 | 0.32 (≈ 0.585 µM) | 0.17 (≈ 0.311 µM) | 0.096 (≈ 0.176 µM) | 11 | 14 | 14 | 7.6 | 7 | 4.4 | 3.9 | 2.9 | 1 | 29 | 0.01 (≈ 0.0183 µM) | 1.9 (≈ 3.48 µM) | – |
| CO/N=C(\C(=O)NC1C(=O)N2C(C(=O)[O-])=C(C[n+]3ccc4sc(NC(C)=O)nc4c3)CS[C@H]12)c1csc(N)n1 (stereo partly shown) [Ip, 7-[(Z)-2-(2-Aminothiazol-4-yl)-2-methoxyiminoacetamido]-3-(2-acetylamino-5-thiazolo[4,5-c]pyridinio)methyl-3-cephem-4-carboxylate] | 0.8 (≈ 1.36 µM) | 1 | 16 | 0.29 | 0.34 (≈ 0.578 µM) | 0.68 (≈ 1.16 µM) | 0.4 (≈ 0.68 µM) | 16 | 24 | 18 | 13 | 10 | 6.8 | 5.5 | 2.5 | 1.4 | 27 | 0.037 (≈ 0.0629 µM) | 11 (≈ 18.7 µM) | – |
| CO/N=C(\C(=O)NC1C(=O)N2C(C(=O)[O-])=C(C[n+]3ccc4sc(NC(=O)CN)nc4c3)CS[C@H]12)c1csc(N)n1 (stereo partly shown) [Iq, 7-[(Z)-2-(2-Aminothiazol-4-yl)-2-methoxyiminoacetamido]-3-(2-glycylamino-5-thiazolo[4,5-c]pyridinio)methyl-3-cephem-4-carboxylate] | 2.4 (≈ 3.98 µM) | 1.8 | 12 | 0.015 | 0.92 (≈ 1.52 µM) | – | 0.61 (≈ 1.01 µM) | 16 | 15 | 17 | 12 | 11 | 9.9 | 8.8 | 3.4 | 1.5 | 28 | 0.038 (≈ 0.0629 µM) | 10 (≈ 16.6 µM) | MIC [7]: 0.69 mg/L (≈ 1.14 µM) |
